Measured values from patent publication US20140294724A1, “COMPOSITIONS AND METHODS FOR TREATMENT OF PROTEINOPATHIES” (Intellect Neurosciences, Inc., priority 2011, published 2014).
Several values for one entry are separate records, joined by “and”; a condition that tells them apart may be missing. Equal entries are not always repeated.

Tests used:
β-Amyloid 1-40 peptide = target: T1, β-Amyloid 1-40 peptide (Homo sapiens, UniProt P05067); test: β-Amyloid aggregation, Thioflavin T fluorescence assay; format: biochemical; details: 24 hours; for reduction of fibrillogenesis: with ApoE4 added (about 1/80 of test compound), equimolar with Aβ; for potency in reducing fibrillogenesis compared with melatonin: with ApoE4 added
T1 construct: 60 μM β-Amyloid 1-40
Protocol: In a NUNC PP 96-well plate 100 μL of MilliQ dH2O was added to the outer wells surrounding the test wells in order to minimize evaporation. Samples in a final volume of 100 μl/well were added to the 96-well plate as follows:
Aggregation was measured at 0 and 24 hours incubation time.
5 μL was obtained from each test sample after incubation and added to 2 mL of a glycine/NaOH buffer (50 mM, pH 9.2) containing 3 μM thioflavin T. Fluorescence intensities were measured at an excitation wavelength of 450 nm and an emission wavelength of 485 nm in a Envision fluorescence spectrophotometer. A time scan of fluorescence intensity was performed, and three measurements were taken after the decay reached a plateau at 200, 220, and 240 s and averaged after subtracting the background fluorescence of 3 μM thioflavin T in the blank buffers. […] All measurements were taken in triplicate. Siliconized polypropylene microcentrifuge tubes (USA Scientific) were used for these experiments. Solutions of recombinant apolipoproteins were immediately lyophilized and, prior to being used, resuspended in 0.1 M tris-phosphate-HCl buffer (pH 7.4). […] Solutions of Aβ were prepared by dissolving 2.2 mg of the peptide in 1 mL of 50 mM buffer at pH 9.6. Aliquots (50 uL) of this solution were lyophilized and stored at −80° C. until they were needed for the experiments. Working stock solutions of the peptide (concentration of 500 uM) were prepared in HPLC-grade water immediately prior to the experiments. The absence of aggregates and amyloid fibrils in these solutions was verified by spectrofluorometry.

[1] = Oxygen Radical Absorbance Capacity assay (ORAC antioxidant test); format: biochemical; details: for Calculated Trolox® equivalents: ratio of slope of sample to slope of Trolox® (Eq. 3)
Description: Sodium Fluorescein was purchased from Invitrogen. 2,2′-Azobis(2-amidinopropane) dihydrochloride (AAPH), 6-hydroxy-2,5,7,8-tetramethylchroman-2-carboxylic acid (Trolox®), gallic acid, Epigallocatechin gallate (EGCG), epigallocatechin (EGC), and quercetin dihydrate were purchased from Sigma-Aldrich (St. Louis, Mo.). Black-sided, special optics clear bottom plates (part #3615) were obtained from Corning.
The ORAC assay depends on the free radical damage to a fluorescent probe, such as fluorescein, to result in a downward change of fluorescent intensity. The assumption is that the degree of change is indicative of the amount of radical damage. […] This inhibition is observed as a preservation of the fluorescent signal. Reactions containing antioxidants and or blanks are run in parallel using equivalent amounts of a molecule capable of generating super reactive oxygen species (ROS) and fluorescent probe. Because the reaction is driven to completion, one can quantitate the protection by calculating the area under the curve (AUC) from the experimental sample. After subtracting the AUC from the blank, the resultant difference would be the protection conferred by the antioxidant compound. […] The ORAC assay is unique in that because the assay is driven to completion the AUC calculation combines both the inhibition time as well inhibition percentage of free radical damage by the antioxidant into a single quantity.
Reactive oxygen species generators were added to parallel reactions containing equal amounts of a fluorescent probe. Reactions contained either a buffer blank or antioxidant samples and standards. The antioxidant capacity of a sample is the net difference between the area under the curve (AUC) of the sample and that of the blank. The exterior wells were not used for experimental determinations. 200 μL of MilliQ dH2O was added to the outer wells surrounding the test wells in order to minimize evaporation. 150 μL sodium fluorescein was added to experimental wells. […] The plate was allowed to equilibrate by incubating for 30 min in the Victor2^V Microplate Reader (Perkin Elmer, Waltham, Mass.) at 37° C. Reactions were initiated by the addition 25 μL of AAPH solution (free radical initiator) for a final reaction volume of 200 μl. The fluorescence was monitored kinetically in Victor2V with temperature control reader for at least 80 min with data taken every minute. Fast orbital shaking (0.5 mm) for 10 sec was performed prior to each reading. The temperature was set to 37° C. at all time and the reagents were treated as light sensitive.
AUC=(R1/R1)+(R2/R1)+(R3/R1)+ . . . +(Rn/R1) (Eq. 1)
Where R1 is the fluorescence reading at the initiation of the reaction and Rn is the last measurement.
Net AUC=AUC(sample)−AUC(blank) (Eq. 2)
The resultant standard curve was then interpolated to determine of antioxidant capacity of the samples and reported as Trolox® equivalence. To determine Trolox® equivalents of each sample range the ratio of the slope (m) of the linear regression analysis of the sample to the slope of the linear regression of Trolox® was used:
TE(range of concentrations)=m(sample)/m(Trolox®) (Eq. 3)

patients with AD = details: 250 mg dose, cited from earlier work
[2] = tested on: moderate-stage AD patients; details: 2000 IU per day; cited from earlier work

T1 sequence (P05067 672-711): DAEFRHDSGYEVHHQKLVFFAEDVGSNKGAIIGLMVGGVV

reduction of fibrillogenesis (β-Amyloid 1-40 peptide)	potency in reducing fibrillogenesis compared with melatonin (β-Amyloid 1-40 peptide)	Compound	AUC ([1]; Concentration 0.390625)	Net AUC ([1]; Concentration 0.390625)	AUC ([1]; Concentration 0.78125)	Net AUC ([1]; Concentration 0.78125)	AUC ([1]; Concentration 1.5625)	Net AUC ([1]; Concentration 1.5625)	AUC ([1]; Concentration 3.125)	Net AUC ([1]; Concentration 3.125)	AUC ([1]; Concentration 6.25)	Net AUC ([1]; Concentration 6.25)	AUC ([1]; Concentration 12.5)	Net AUC ([1]; Concentration 12.5)	AUC ([1]; Concentration 25)	Net AUC ([1]; Concentration 25)	AUC ([1]; Concentration 50)	Net AUC ([1]; Concentration 50)	AUC ([1]; Concentration 100)	Net AUC ([1]; Concentration 100)	also measured
75%	about 2 fold	COc1ccc2[nH]cc(CCNC(=O)CCOCCOCCOCCOCCNC(=O)CCN3C(=O)CC(SC[C@H](N)C(=O)O)C3=O)c2c1 (stereo partly drawn) [Example 2, (2R)-2-amino-3-((1-(1-(5-methoxy-1H-indol-3-yl)-4,20-dioxo-7,10,13,16-tetraoxa-3,19-diazadocosan-22-yl)-2,5-dioxopyrrolidin-3-yl)thio)propanoic acid]	13.97	7.75	20.49	14.27	28.06	21.84	45.62	39.39	71.79	65.56	94.48	88.26	97.13	90.91	97.12	90.90	96.55	90.33	Calculated Trolox® equivalents [1]: 1.97 Trolox® equivalents
–	–	CN(C)Cc1ccc2c(Cl)cc(Cl)c(O)c2n1 [PBT2]	–	–	–	–	–	–	–	–	–	–	–	–	–	–	–	–	–	–	tolerability (patients with AD; patients with AD): well-tolerated; cerebrospinal fluid (CSF) levels of amyloid-beta42 (patients with AD; within 12 weeks of treatment): significantly lowered; executive function on a Neuro-psychological Test Battery (NTB) (patients with AD; within 12 weeks of treatment): significantly improved
75%	about 2 fold	COc1ccc2[nH]cc(CCNC(=O)CCCCCN3C(=O)CC(SC[C@H](N)C(=O)O)C3=O)c2c1 (stereo partly drawn) [Example 1, (2R)-2-amino-3-((1-(6-((2-(5-methoxy-1H-indol-3-yl)ethyl)amino)-6-oxohexyl)-2,5-dioxopyrrolidin-3-yl)thio)propanoic acid]	14.99	8.56	20.01	13.58	29.51	23.08	46.55	40.12	74.68	68.25	93.56	87.13	93.03	86.60	88.39	81.96	82.12	75.69	Calculated Trolox® equivalents [1]: 2.02 Trolox® equivalents
–	–	Cc1c(C)c2c(c(C)c1O)CCC(C)(C(=O)O)O2 (stereo not shown) [Trolox, 6-hydroxy-2,5,7,8-tetramethylchroman-2-carboxylic acid]	11.95 and 13.53 and 11.49	5.30 and 7.10 and 5.27	14.90 and 15.01 and 14.62	8.24 and 8.58 and 8.39	20.00 and 19.69 and 19.52	13.34 and 13.26 and 13.30	28.96 and 29.49 and 28.51	22.31 and 23.06 and 22.29	44.91 and 44.55 and 43.41	38.25 and 38.12 and 37.18	77.61 and 74.88 and 73.04	70.96 and 68.45 and 66.81	96.34 and 100.28 and 98.61	89.68 and 93.85 and 92.39	98.05 and 97.48 and 100.67	91.40 and 91.05 and 94.45	95.82 and 99.05 and 97.58	89.17 and 92.62 and 91.35	protection of fluorescein against oxidation ([1]; 6.25 μM, lowest concentration tested, versus buffer only control): only slight protection; duration of virtually full protection of fluorescein against oxidation ([1]; 100 μM, highest concentration tested): approximately 20 minutes
–	–	Cc1c(C)c2c(c(C)c1O)CCC(C)(CCCC(C)CCCC(C)CCCC(C)C)O2 (stereo not drawn) [Vitamin E, α-tocopherol]	–	–	–	–	–	–	–	–	–	–	–	–	–	–	–	–	–	–	delay in reaching the end points of institutionalization, loss of major activities of daily living, or death [2]: small but significant delay; loss of cognitive performance [2]: did not delay
–	–	COc1ccc2[nH]cc(CCNC(C)=O)c2c1 [Melatonin, N-[2-(5-Methoxyindol-3-yl)ethyl]acetamide]	14.74	8.09	20.89	14.24	28.74	22.09	42.59	35.94	66.10	59.45	88.65	82.00	93.12	86.47	94.75	88.10	91.48	84.82	–
